Values after ≈ are worked out from the molar mass of the structure shown.

These results are taken from US6809181B2, “Human beta-defensin-3 (HBD-3), a highly cationic beta-defensin antimicrobial peptide” (University of Iowa Research Foundation, priority 2000, dated 2004).

The subject of one assay is Mycoplasma hominis. Particulars: n=28, r140, cited from earlier work.
For another assay, the system named is Mycoplasma pneumoniae. The settings on record: n=11, r141, cited from earlier work.
For another assay, the system named is Staphylococcus aureus. Particulars: n=100, r142, cited from earlier work.
A further assay concerns Ureaplasma urealyticum. Particulars: n=19, r143, cited from earlier work.
For assay [1], the system named is HBD-3 mRNA expression in fetal lung explants. Nature of the assay: RT-PCR of HBD-3 mRNA in fetal lung explants. Format: cell-based, human. The settings on record: 100 ng/ml IL-1β for 24 h.
Assay [2] has as its system HBD-3 mRNA expression in cultured gingival keratinocytes. Nature of the assay: RT-PCR of HBD-3 mRNA in cultured gingival keratinocytes. The class given is cell-based, human. Particulars: 100 ng/ml IL-1β for 24 h.

As for `CCC[C@@H]1C[C@@H](C(=O)N[C@@H]([C@H]2O[C@H](SC)[C@H](O)[C@@H](O)[C@H]2O)[C@@H](C)O)N(C)C1` [LINCOMYCIN, lincomycin], the Range in the assay on Mycoplasma hominis is reported as 0.5-16; in the assay on Mycoplasma pneumoniae, 2-32; with Staphylococcus aureus it was 0.5-512; in the assay with Ureaplasma urealyticum, 64-128. Also, the MIC50 in the assay on Mycoplasma hominis (unit assumed) was 2 µg/mL (≈ 4.92 µM); with Mycoplasma pneumoniae (unit assumed), 8 µg/mL (≈ 19.7 µM); in the assay with Staphylococcus aureus (unit assumed) it was 1 µg/mL (≈ 2.46 µM); in the assay on Ureaplasma urealyticum (unit assumed), 128 µg/mL (≈ 315 µM). Besides, the MIC90 in the assay on Mycoplasma hominis (unit assumed) was 4 µg/mL (≈ 9.84 µM); in the assay on Mycoplasma pneumoniae (unit assumed), 32 µg/mL (≈ 78.7 µM); in the assay on Staphylococcus aureus (unit assumed), 1 µg/mL (≈ 2.46 µM); in the assay with Ureaplasma urealyticum (unit assumed), 128 µg/mL (≈ 315 µM).
With “IL-1β: IL-1β (R & D Systems), pro-inflammatory stimulus used at 100 ng/ml to induce HBD-3 mRNA expression”, the “HBD-3 mRNA expression” value in assay [1] and in assay [2] was “increased markedly” in each case.

One may read the MIC50 as an inhibitory concentration at the 50% level, which refers to growth in some studies and to a panel of isolates in others. As a reminder, the MIC90 is the lowest concentration that inhibits either 90% of growth or 90% of the strains tested, depending on the study.
